Experimental data as given in patent publication US9440956B2, “Indole, indazole and benzimidazole arylamides as P2X3 and P2X2/3 antagonists” (Roche Palo Alto LLC, priority 2010, dated 2016).

Columns and labels:
rat P2X3 receptor = molecular target: T1, rat P2X3 receptor (Rattus norvegicus, UniProt P49654); assay: P2X3 FLIPR (Fluorometric Imaging Plate Reader) assay; format: cell-based; settings: CHO-K1 cells transfected with cloned rat P2X3; agonist α,β-meATP 1 μM; Fluo-3 calcium fluorescence
T1 construct: expressed in transfected cells; host or cells: CHO-K1
T1 sequence (P49654 1-397): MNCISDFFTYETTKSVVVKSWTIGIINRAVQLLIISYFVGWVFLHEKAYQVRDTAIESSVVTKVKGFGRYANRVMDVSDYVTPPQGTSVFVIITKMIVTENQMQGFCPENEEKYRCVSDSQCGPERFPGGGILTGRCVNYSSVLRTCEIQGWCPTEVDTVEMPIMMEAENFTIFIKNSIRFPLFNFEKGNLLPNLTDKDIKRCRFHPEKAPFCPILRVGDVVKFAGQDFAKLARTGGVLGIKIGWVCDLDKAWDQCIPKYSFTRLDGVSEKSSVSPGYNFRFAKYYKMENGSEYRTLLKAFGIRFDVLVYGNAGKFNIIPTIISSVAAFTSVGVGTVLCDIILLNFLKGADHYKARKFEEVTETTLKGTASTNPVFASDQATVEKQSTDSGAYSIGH
Procedure: (§1) P2X3/P2X2/3 FLIPR (Fluorometric Imaging Plate Reader) Assay
(§2) CHO-K1 cells were transfected with cloned rat P2X3 or human P2X2/3 receptor subunits and passaged in flasks. 18-24 hours before the FLIPR experiment, cells were released from their flasks, centrifuged, and resuspended in nutrient medium at 2.5×10^5 cells/ml. The cells were aliquoted into black-walled 96-well plates at a density of 50,000 cells/well and incubated overnight in 5% CO2 at 37° C. On the day of the experiment, cells were washed in FLIPR buffer (calcium- and magnesium-free Hank's balanced salt solution, 10 mM HEPES, 2 mM CaCl2, 2.5 mM probenecid; FB). Each well received 100 μl FB and 100 μl of the fluorescent dye Fluo-3 AM [2 μM final conc.]. After a 1 hour dye loading incubation at 37° C., the cells were washed 4 times with FB, and a final 75 μl/well FB was left in each well.
(§3) Test compounds (dissolved in DMSO at 10 mM and serially diluted with FB) or vehicle were added to each well (25 μl of a 4× solution) and allowed to equilibrate for 20 minutes at room temperature. The plates were then placed in the FLIPR and a baseline fluorescence measurement (excitation at 488 nm and emission at 510-570 nm) was obtained for 10 seconds before a 100 μl/well agonist or vehicle addition. The agonist was a 2× solution of α,β-meATP producing a final concentration of 1 μM (P2X3) or 5 μM (P2X2/3). Fluorescence was measured for an additional 2 minutes at 1 second intervals after agonist addition. A final addition of ionomycin (5 μM, final concentration) was made to each well of the FLIPR test plate to establish cell viability and maximum fluorescence of dye-bound cytosolic calcium. Peak fluorescence in response to the addition of α,β-meATP (in the absence and presence of test compounds) was measured and inhibition curves generated using nonlinear regression. PPADS, a standard P2X antagonist, was used as a positive control.

human P2X2/3 receptor = molecular target: T2, human P2X2/3 receptor (Homo sapiens, UniProt P56373+Q9UBL9); assay: P2X2/3 FLIPR (Fluorometric Imaging Plate Reader) assay; format: cell-based; settings: CHO-K1 cells transfected with human P2X2/3; agonist α,β-meATP 5 μM; Fluo-3 calcium fluorescence
T2 construct: expressed in transfected cells; host or cells: CHO-K1
T2 sequence (Q9UBL9 1-471): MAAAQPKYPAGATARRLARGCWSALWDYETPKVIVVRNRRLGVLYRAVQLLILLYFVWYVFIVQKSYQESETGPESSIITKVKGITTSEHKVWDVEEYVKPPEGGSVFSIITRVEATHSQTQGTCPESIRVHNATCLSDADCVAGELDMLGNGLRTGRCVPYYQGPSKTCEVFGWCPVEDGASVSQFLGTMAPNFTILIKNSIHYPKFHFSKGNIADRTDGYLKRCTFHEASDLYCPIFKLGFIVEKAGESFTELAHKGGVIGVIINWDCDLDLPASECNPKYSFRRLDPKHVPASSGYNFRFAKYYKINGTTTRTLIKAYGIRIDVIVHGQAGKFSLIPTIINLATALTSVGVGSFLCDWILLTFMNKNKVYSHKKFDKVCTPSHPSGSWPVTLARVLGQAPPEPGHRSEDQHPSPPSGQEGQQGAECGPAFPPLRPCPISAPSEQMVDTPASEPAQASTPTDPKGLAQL
T2 sequence (P56373 1-397): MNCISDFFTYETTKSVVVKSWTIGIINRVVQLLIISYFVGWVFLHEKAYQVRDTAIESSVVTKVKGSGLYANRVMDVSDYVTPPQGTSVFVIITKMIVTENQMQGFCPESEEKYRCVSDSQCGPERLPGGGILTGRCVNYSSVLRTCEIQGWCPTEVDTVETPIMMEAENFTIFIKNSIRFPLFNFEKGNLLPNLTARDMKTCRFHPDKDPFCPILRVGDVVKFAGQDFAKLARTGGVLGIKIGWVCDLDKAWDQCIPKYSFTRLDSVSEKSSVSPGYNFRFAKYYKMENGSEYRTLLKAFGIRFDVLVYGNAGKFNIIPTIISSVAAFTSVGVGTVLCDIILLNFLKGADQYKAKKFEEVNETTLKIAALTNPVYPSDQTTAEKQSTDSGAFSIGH
Procedure: as §1, §2, §3

pKi P2X3 (rat P2X3 receptor) | pKi P2X2/3 (human P2X2/3 receptor) | Structure (SMILES)
6.26 | – | Cc1ccc(-c2cc(C(=O)NCc3cnc(C)cn3)cc3c2ccn3C(C)C)nc1 [Compound 26, 1-Isopropyl-4-(5-methyl-pyridin-2-yl)-1H-indole-6-carboxylic acid (5-methyl-pyrazin-2-ylmethyl)-amide]
5.48 | – | Cc1ccc(-c2cc(C(=O)N[C@@H](C)CO)cc3c2ccn3C(C)C)nc1 [Compound 27, 1-Isopropyl-4-(5-methyl-pyridin-2-yl)-1H-indole-6-carboxylic acid ((S)-2-hydroxy-1-methyl-ethyl)-amide]
6.46 | – | Cc1ccc(-c2cc(C(=O)NCc3cnc(C)cn3)cc3c2ncn3CC(C)C)nc1 [Compound 28, 3-Isobutyl-7-(5-methyl-pyridin-2-yl)-3H-benzoimidazole-5-carboxylic acid (5-methyl-pyrazin-2-ylmethyl)-amide]
5.24 | – | Cc1ccc(-c2cc(C(=O)N[C@@H](C)CO)cc3c2ncn3CC(C)C)nc1 [Compound 29, 3-Isobutyl-7-(5-methyl-pyridin-2-yl)-3H-benzoimidazole-5-carboxylic acid ((S)-2-hydroxy-1-methyl-ethyl)-amide]

The next lines start with the compound.

Structure (SMILES) | pKi P2X3 (rat P2X3 receptor) | pKi P2X2/3 (human P2X2/3 receptor)
Cc1ccc(-c2cc(C(=O)NCc3cnc(C)cn3)cc3c2cnn3CC(C)C)nc1 [Compound 1, 1-Isobutyl-4-(5-methyl-pyridin-2-yl)-1H-indazole-6-carboxylic acid (5-methyl-pyrazin-2-ylmethyl)-amide] | 7.3 | 5.78
CCCCn1ncc2c(-c3ccc(C)cn3)cc(C(=O)NCc3cnc(C)cn3)cc21 [Compound 2, 1-Butyl-4-(5-methyl-pyridin-2-yl)-1H-indazole-6-carboxylic acid (5-methyl-pyrazin-2-ylmethyl)-amide] | 7.38 | 6.34
CCCCn1ncc2c(-c3ccc(C)cn3)cc(C(=O)N[C@@H](C)CO)cc21 [Compound 3, 1-Butyl-4-(5-methyl-pyridin-2-yl)-1H-indazole-6-carboxylic acid ((S)-2-hydroxy-1-methyl-ethyl)-amide] | 6.31 | –
Cc1ccc(-c2cc(C(=O)NCc3cnc(C)cn3)cc3c2cnn3C(C)C)nc1 [Compound 4, 1-Isopropyl-4-(5-methyl-pyridin-2-yl)-1H-indazole-6-carboxylic acid (5-methyl-pyrazin-2-ylmethyl)-amide] | 6.58 | 4.92
Cc1ccc(-c2cc(C(=O)N[C@@H](C)CO)cc3c2cnn3C(C)C)nc1 [Compound 5, 1-Isopropyl-4-(5-methyl-pyridin-2-yl)-1H-indazole-6-carboxylic acid ((S)-2-hydroxy-1-methyl-ethyl)-amide] | – | 5
COCCn1ncc2c(-c3ccc(C)cn3)cc(C(=O)NCc3cnc(C)cn3)cc21 [Compound 6, 1-(2-Methoxy-ethyl)-4-(5-methyl-pyridin-2-yl)-1H-indazole-6-carboxylic acid (5-methyl-pyrazin-2-ylmethyl)-amide] | 5.51 | 5
Cc1ccc(-c2cc(C(=O)NCc3cnc(C)cn3)cc3c2cnn3CCC(C)C)nc1 [Compound 7, 1-(3-Methyl-buty)-4-(5-methyl-pyridin-2-yl)-1H-indazole-6-carboxylic acid (5-methyl-pyrazin-2-ylmethyl)-amide] | 7.47 | 6.17
Cc1ccc(-c2cc(C(=O)NCc3ccc(C)nn3)cc3c2cnn3CCC(C)C)nc1 [Compound 8, 1-(3-Methyl-butyl)-4-(5-methyl-pyridin-2-yl)-1H-indazole-6-carboxylic acid (6-methyl-pyridazin-3-ylmethyl)-amide] | 7.66 | 6.23
Cc1ccc(-c2cc(C(=O)NCc3cnc(C)cn3)cc3c2cnn3Cc2ccccc2)nc1 [Compound 9, 1-Benzyl-4-(5-methyl-pyridin-2-yl)-1H-indazole-6-carboxylic acid (5-methyl-pyrazin-2-ylmethyl)-amide] | 7.25 | 6.25
